In patent US6337317B1, “Antimicrobial peptides and methods of use thereof” (priority 2000, dated 2002):
Where a SMILES comes first, the peptide text is derived from it.

Legend:
S. aureus R147 = format: cell-based, Staphylococcus aureus
Procedure: (§1) The biological activity of the peptides can be determined by standard methods known to those of skill in the art, such as a “minimal inhibitory concentration” (MIC) assay (see Wu and Hancock (1999) J. Biol Chem. 274:29-35 and Examples section). A MIC assay allows the determination of the lowest concentration of peptide that inhibits the multiplication and growth of mircoorganisms. Changes in the microorganism population are assessed by measuring the optical density (OD) of the population in broth or medium. Peptide MIC's can be determined for a variety of micoorganisms under a variety of conditions. Another assay for the biological activity of the peptides is a “fractional inhibitory concentration” (FIC) assay. This assay is especially useful for determining synergistic effects between the peptides of the invention, and between invention peptides and other compounds such as known antibiotics. A FIC assay employs the strategy of a MIC assay with additional variable(s), e.g., known antibiotics. […] The FIC is calculated by looking at the impact of an antibiotic on the MIC of the peptide and the reciprocal relationship. […] As used herein, FIC can be determined as follows: […]
(§2) MIC Assay p The minimum inhibitory concentrations of (MIC) of several invention peptides were determined using methods described elsewhere (Wu and Hancock, (1999) J. Biol Chem. 274:29-35). […]

S. aureus SAP0017 = format: cell-based, Staphylococcus aureus
Procedure: as §1, §2

E. coli DC2 = test: Cytoplasmic membrane depolarization, diSC35 assay; format: cell-based, Escherichia coli; conditions: 0.25 μg/ml peptide
Procedure: The arrowhead indicates the time at which 0.25 μg/ml peptide was added. PV5: SEQ ID NO:11; PV7: SEQ ID NO:4; and PV8: SEQ ID NO:3.
(§3) The cytoplasmic membrane depolarization activity of the peptides was determined (Wu and Hancock (1999) J. Biol. Chem. 274:29-35) using the membrane potential sensitive dye 3,3-dipropylthiacarbocyanine diSC35 (28) and E. coli DC2. Bacterial cells in mid-log phase were centrifuged, washed in 5 mM HEPES, pH 7.8, and resuspended in the same buffer to an OD600 of 0.05. A stock solution of diSC35 was added to a final concentration of 0.4 μM and quenching was allowed to occur at room temperature for 20-30 min. Then KCl was added to the cell suspension to a final concentration of 100 mM to equilibrate the cytoplasmic and external K^+ concentrations. A 2-mL cell suspension was placed in a 1 cm cuvette and the desired concentration of tested peptide was added. Changes in fluorescence due to the disruption of the membrane potential in the cytoplasmic membrane were continuously recorded using a Perkin-Elmer model 650-10S spectrofluorimeter at an excitation wavelength of 622 nm and an emission wavelength of 670 nm. The concentration of peptide leading to a 50% of maximal increase in NPN uptake was recorded as the P50.

P. aeruginosa H744 = format: cell-based, Pseudomonas aeruginosa
Procedure: as §1, §2

P. aeruginosa H374 = format: cell-based, Pseudomonas aeruginosa
Procedure: as §1, §2

[1] = system: intact cells of E. coli UB1005; test: NPN uptake assay, outer membrane permeabilization; format: cell-based, Escherichia coli; conditions: peptide concentration leading to 50% of maximal increase in NPN uptake
Procedure: The outer membrane permeabilization activity of invention peptides was determined by the 1-N-phenylnapthylamine (NPN) uptake assay of Loh et al. ((1984) Antimicor. Agents Chemother. 26:546-551), using intact cells of E. coli UB1005.
as §3
Therefore, an increase in fluorescence in the presence of a peptide indicates the ability of peptide to permeabilize the bacterial outer membrane.

[2] = system: Staphylococcus epidermidis; format: cell-based; conditions: Staphylococcus epidermidis clinical isolate
Procedure: (§4) The biological activity of the peptides can be determined by standard methods known to those of skill in the art, such as a “minimal inhibitory concentration” (MIC) assay (see Wu and Hancock (1999) J. Biol Chem. 274:29-35 and Examples section). A MIC assay allows the determination of the lowest concentration of peptide that inhibits the multiplication and growth of mircoorganisms. Changes in the microorganism population are assessed by measuring the optical density (OD) of the population in broth or medium. Peptide MIC's can be determined for a variety of micoorganisms under a variety of conditions. Another assay for the biological activity of the peptides is a “fractional inhibitory concentration” (FIC) assay. This assay is especially useful for determining synergistic effects between the peptides of the invention, and between invention peptides and other compounds such as known antibiotics. A FIC assay employs the strategy of a MIC assay with additional variable(s), e.g., known antibiotics. One type of FIC assay is performed in a microwell plate containing microorganisms in broth. Peptides, in a range of dilutions, is added to each well following a patter of one dimension of the microwell plate, and antibiotics, in the other dimension. The FIC is calculated by looking at the impact of an antibiotic on the MIC of the peptide and the reciprocal relationship. […] Preferably, an FIC of less than 0.5 is obtained for synergism. As used herein, FIC can be determined as follows:
(§5) The bacterial strains used for antimicrobial activity assays included E. coli UB1005 (F^−, nalA37, metB1) and its outer membrane deficient mutant DC2 (16), E. coli KF130 (gyrA) (Hooper et al. (1987) Am. J. Med. 82:(Suppl. 4A),12-20), wild tppe strains of S. typhimurium 14028s (Fields et al. (1989) Science 243:1059-1062), S. aureus ATCC25923, S. aureus SAP0017 and R147. Also included was a clinical isolate of S. epidermidis were obtained from Dr. D. Speert, Department of Medicine, University of British Columbia, and P. aeruginosa PAO1 (Hancock and Carey (1979) J. Bacteriol. 140:902-910), H374 and H744 (Poole et al. (1993) J. Bacterial.175:7363-7372.) and E. faecalis ATCC 29212. Antifungal activity was tested using a clinical lab isolate of Candida albicans. All the strains were grown in Mueller Hinton (MH) broth (Difco Laboratories, Detroit, Mich.) at 37° C. unless otherwise indicated. The lipopolysaccharides (LPS) of E. coli UB1005 and P. aeruginosa H103 used for the dansyl-polymyxin B replacement assay were isolated as described by Moore et al. ((1986) Antimicrobial. Agents Chemother. 29:496-500). Polymyxin B, 1-N-phenylnapthylamine (NPN), carbonyl cyanide-m-chlorophenyl hydrazone (CCCP), Re LPS from S. Minnesota R595 (Re mutant) and LPS from E. coli 0111 :B4 were purchased from Sigma Chemicals Co. (St. Louis, Mo.). Dansyl polymyxin B was synthesized as described previously (Moore et al. (1986) Antimicrobial. Agents Chemother. 29:496-500). The lipids 1-pamitoyl-2-oleoyl-sn-glycero-3-phosphocholine (POPC), 1-palmitoyl-2-oleoyl-sn-glycero-3-phosphoglycerol (POPG), 1-palmitoyl-2-oleoyl-sn-glycero-3-phosphoethanolamine (POPE) and phosphatidylglycerol from egg yolk (egg-PG) were purchased from Avanti Polar Lipids Inc. (Alabaster, Ala.). The fluorescent dye 3,3-dipropylthiacarbocyanine (diSC35) was purchased from Molecular Probes (Eugene, Oreg.).
(§6) MIC Assay p The minimum inhibitory concentrations of (MIC) of several invention peptides were determined using methods described elsewhere (Wu and Hancock, (1999) J. Biol Chem. 274:29-35). Cells were grown overnight at 37EC in LB-S (Luria broth without any salt supplement) and diluted one in 10,000 in the same medium to give concentrations of about 10^4 to 10^5 CFU/ml. The broth dilutions were set up in a 96-well microtiter plate by putting 200 μl of LB-S containing the initial concentration of antibiotic or compound in column 1 and 100 Φl of the same medium in columns 2-12. […]

Enterococcus facaelis = format: cell-based
Procedure: as §4, §5, §6

Escherichia coli UB1005 = format: cell-based
Procedure: as §4, §5, §6

[3] = system: Pseudomonas aeruginosa PAO1; format: cell-based
Procedure: as §4, §5, §6

[4] = system: Salmonella typhimurium 14028s; format: cell-based
Procedure: as §4, §5, §6

## CC(C)[C@@H]1NC(=O)[C@H](CCCNC(=N)N)NC(=O)[C@H](Cc2ccccc2)NC(=O)[C@@H](NC(=O)[C@H](Cc2c[nH]c3ccccc23)NC(=O)[C@H](CCCNC(=N)N)NC(=O)[C@@H](N)CCCNC(=N)N)CSSC[C@@H](C(=O)N[C@@H](CCCNC(=N)N)C(N)=O)NC(=O)[C@H](CCCCN)NC(=O)[C@H](CCCNC(=N)N)NC(=O)[C@H](Cc2ccc(O)cc2)NC(=O)[C@@H]2CSSC[C@H](NC1=O)C(=O)N[C@@H](Cc1ccc(O)cc1)C(=O)N[C@@H](CCCNC(=N)N)C(=O)NCC(=O)N[C@@H](Cc1ccccc1)C(=O)N2 [Polyphemusin I] (HELM PEPTIDE1{R.R.W.C.F.R.V.C.Y.R.G.F.C.Y.R.K.C.R.[am]}$PEPTIDE1,PEPTIDE1,4:R3-17:R3|PEPTIDE1,PEPTIDE1,8:R3-13:R3$$$V2.0; N-terminus and C-terminus assumed)
S. aureus R147
  MIC: 0.5 µg/mL
S. aureus SAP0017
  MIC: 0.5 µg/mL
E. coli DC2
  time to dissipation of the cytoplasmic membrane potential: ≤ 5 min
P. aeruginosa H744
  MIC: 0.25 µg/mL
P. aeruginosa H374
  MIC: 0.25 µg/mL
[1]
  P50: 2.8 µg/mL
[2]
  MIC: 0.25 µg/mL
Enterococcus facaelis
  MIC: 0.25 µg/mL
Escherichia coli UB1005
  MIC: 0.125 µg/mL
[3]
  MIC: 0.25 µg/mL
[4]
  MIC: 0.25 µg/mL
